The test system of experiment [1] is Trich. mentagrophytes ATCC 9129. Put plainly: Fungistatic effect, serial dilution test (microtitre system). Format: cell-based. Particulars: Trichophyton mentagrophytes. The protocol: (§1) IV. Bestimmung der fungistatischen Wirkung
(§2) Die fungistatische Wirkung wurde über den Reihenverdünnungstest (Mikrotitersystem) bestimmt. Als Nährmedium diente Sabouraud-Bouillon. Das Inoculum betrug ca. 10^4 bis 10^5 KBE/ml (KBE = koloniebildende Einheiten); die Bebrütungszeit betrug 2 bis 4 Tage bei 26°C.
(§3) Es wurde die niedrigste Konzentration, die sichtbares Wachstum nicht mehr zuließ (minimale Hemmkonzentration MHK), bestimmt.
(§4) Geprüft wurden die vorstehend erwähnten Verbindungen A, B, D, E, F, H, I, K, L und M. Die Ergebnisse sind in der folgenden Tabelle 5 zusammengefaßt. Die MHK ist in µg/ml angegeben.

Experiment [2] concerns Sacch. carlsbergensis ATCC 9080. The experiment is described as above. Format: cell-based. Conditions: Saccharomyces pastorianus. The protocol: as §1, §2, §3, §4
The subject of a further experiment is Asp. niger ATCC 16404. Described as above. Format: cell-based. Conditions: Aspergillus niger. The protocol: as §1, §2, §3, §4
Experiment [3] has as its system Cand. albicans ATCC 10231. The experiment is described as above. It is filed as cell-based. Conditions: Candida albicans. The protocol: as §1, §2, §3, §4
A further experiment relates to Rhod. rubra 49. The experiment is described as above. It is filed as cell-based. Particulars: read-out: MHK. The protocol:
as §1, §2, §3, §4

For another experiment, the system named is Pen.notatum CBS 19746. The experiment is described as above. It is filed as cell-based. Particulars: Penicillium chrysogenum. The protocol: as §1, §2, §3, §4
In experiment [4] the target is T1, ^14C-Acetat-Einbau in die mit Digitonin fällbaren Steroide (Homo sapiens, UniProt P48449).
T1 sequence (P48449 2-732): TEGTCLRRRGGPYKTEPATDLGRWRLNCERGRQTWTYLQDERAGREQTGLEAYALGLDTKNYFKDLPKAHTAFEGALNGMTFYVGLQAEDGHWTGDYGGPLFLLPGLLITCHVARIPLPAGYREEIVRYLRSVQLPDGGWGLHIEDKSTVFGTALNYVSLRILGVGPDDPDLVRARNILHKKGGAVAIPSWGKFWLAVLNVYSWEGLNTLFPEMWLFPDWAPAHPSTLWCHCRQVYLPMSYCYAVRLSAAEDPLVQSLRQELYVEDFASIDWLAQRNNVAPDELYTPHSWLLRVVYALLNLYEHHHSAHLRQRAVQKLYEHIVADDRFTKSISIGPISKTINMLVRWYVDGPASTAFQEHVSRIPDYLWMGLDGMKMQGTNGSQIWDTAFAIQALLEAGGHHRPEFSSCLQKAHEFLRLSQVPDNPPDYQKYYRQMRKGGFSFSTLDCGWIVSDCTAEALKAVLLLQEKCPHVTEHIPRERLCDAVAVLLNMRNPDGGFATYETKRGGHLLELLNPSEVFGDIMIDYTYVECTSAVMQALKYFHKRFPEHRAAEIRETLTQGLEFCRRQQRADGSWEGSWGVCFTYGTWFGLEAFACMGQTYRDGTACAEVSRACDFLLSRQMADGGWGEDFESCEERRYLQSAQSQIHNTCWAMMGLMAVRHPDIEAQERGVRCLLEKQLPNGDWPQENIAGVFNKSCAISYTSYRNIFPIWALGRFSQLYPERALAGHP
Description: Inhibition of 14C-acetate incorporation into digitonin-precipitable steroids. It is filed as cell-based. Conditions: read-out: Prozentwerte, um die die Verbindungen den ^14C-Acetat-Einbau hemmen. The text has this:
I. Messung der Hemmung des ^14C-Acetat-Einbaus in die mit Digitonin fällbaren Steroide:
Die Untersuchung der Hemmwirkung wurde nach der in J. Lipid. Res. 37, 148-157 [1996] beschriebenen Methode bei Testkonzentrationen von 10^-8 und 10^-9 Mol/l durchgeführt.
Die Prozentwerte, um die obigen Verbindungen den ^14C-Acetat-Einbau hemmen, sind in Tabelle 1 angegeben.

Experiment [5] deals with 2,3-Epoxisqualen-Lanosterol-Cyclase. Description: In-vivo effect in the rat after oral administration: 2,3-epoxysqualene level in the liver. Details: species or system Ratte. The protocol: II. Messung der in-vivo Wirkung an der Ratte nach oraler Gabe
Die Inhibierung des Enzyms 2,3-Epoxisqualen-Lanosterol-Cyclase bewirkt eine Erhöhung der 2,3-Epoxisqualenspiegel in Leber und Plasma. Die Menge an gebildetem 2,3-Epoxisqualen dient daher als direktes Maß für die Wirkstärke am Ganztier.Die Bestimmung wurde nach der in J. Lipid. Res. 38, 564-575, [1997] beschriebenen Methode nach t = 3 bzw. 8 Stunden nach Substanzgabe mit Konzentrationen von c = 0.01, 0.03, 0.1, 0.3 und 1.0 mg/kg durchgeführt. In der folgenden Tabelle 3 sind beispielhaft die Ergebnisse für die vorstehend erwähnten Substanzen A, B, C, D, E, G, H, I und K angegeben.

The nature of experiment [6]: Lipid lowering in the normolipaemic golden hamster. Format: in vivo, Goldhamster. Particulars: compared with control group fed without test substance. The source says: III. Lipidsenkung am normolipämischen Goldhamster.
Diese Bestimmung wurde nach der in J. Lipid. Res. 38, 564-575, (1997) beschriebenen Methode durchgeführt. Am Ende des Versuchs wurde Gesamtcholesterol, β-Lipoprotein-Cholesterol sowie HDL-Cholesterol bestimmt und mit den Werten einer ohne Testsubstanz gefütterten Kontrollgruppe verglichen.

The source of these data is patent EP1060162B1, “URETHANES DERIVED FROM AZACYCLOALKANES, THIO AND DITHIO ANALOGUES, PRODUCTION AND USE THEREOF AS 2,3 EPOXYSQUALENE LANESTEROL CYCLASE INHIBITORS” (Boehringer Ingelheim Pharma KG, priority 1997, dated 1999).

The structures appear in SMILES notation. Structures can show the parent of a compound that is named as a salt. Where two headings read alike, the source gives them in different places.

On to `Cc1ccc(OC(=O)N2CCC(Cc3ccc(CN(C)C)cc3)CC2)cc1.Cl` [K, 4-[4-(Dimethylaminomethyl)benzyl] -N-(4-methylphenoxy)-carbonylpiperidin-hydrochlorid], for which the MIC was 8 µg/mL in [1] (ATCC9129, read-out: MHK); 512 µg/mL in experiment [2] (ATCC9080, read-out: MHK); 64 µg/mL with Asp. niger ATCC 16404 (ATCC16404, read-out: MHK); 64 µg/mL in experiment [3] (ATCC10231, read-out: MHK); 64 µg/mL with Rhod. rubra 49; 256 µg/mL with Pen.notatum CBS 19746 (CBS19746, read-out: MHK). Further, in experiment [4], the inhibition at 0.001 µM worked out at 49%. The inhibition at 0.01 µM in [4] turned out to be 82%. Besides, the “2,3-Epoxysqualen-Konzentration in der Leber (Ratte)” value (“2,3-Epoxysqualen-Konzentration” below) is reported as 0.4 µg/g in experiment [5] (c = 0.1 mg/kg, t = 3 h); 0.4 µg/g in experiment [5] (c = 0.1 mg/kg, t = 8 h); 24.0 µg/g in experiment [5] (c = 1.0 mg/kg, t = 3 h); 5.5 µg/g in experiment [5] (c = 1.0 mg/kg, t = 8 h). Also, in experiment [6] (Dosis 54.2 mg/kg/Tag), the Gesamtcholesterol is reported as -6.8%. Besides, the HDL-Cholesterol in [6] (Dosis 54.2 mg/kg/Tag) came to 2.3%. In addition, in experiment [6] (Dosis 54.2 mg/kg/Tag), the β-Lipoprotein-Cholesterol was -21.2%.

Turning to `CN(C)Cc1ccc(CC2CCN(C(=O)Oc3ccc(F)cc3)CC2)cc1` [M, 4-[4-(Dimethylaminomethyl)benzyl]-N-(4-fluorphenoxy)-carbonylpiperidin-hydrochlorid], the MIC in [1] (ATCC9129, read-out: MHK) was 2 µg/mL; in experiment [2] (ATCC9080, read-out: MHK), 512 µg/mL; in the experiment on Asp. niger ATCC 16404 (ATCC16404, read-out: MHK), 64 µg/mL; in experiment [3] (ATCC10231, read-out: MHK), 128 µg/mL; in the experiment on Rhod. rubra 49 it was 32 µg/mL; in the experiment with Pen.notatum CBS 19746 (CBS19746, read-out: MHK), 512 µg/mL. Besides, in experiment [4], the inhibition at 0.001 µM was determined as 59%. Also, in experiment [4], the inhibition at 0.01 µM amounted to 84%. The Gesamtcholesterol in [6] (Dosis 57.5 mg/kg/Tag) is -26.8%. For the same compound, the HDL-Cholesterol in experiment [6] (Dosis 57.5 mg/kg/Tag) was -20.4%. Further, the β-Lipoprotein-Cholesterol in experiment [6] (Dosis 57.5 mg/kg/Tag) is reported as -31.6%.

For the compound `CN(C)Cc1ccc(CC2CCN(C(=O)Oc3ccc(Cl)cc3)CC2)cc1` [Verbindung H, N-(4-Chlorphenoxy)carbonyl-4-[4-(dimethylaminomethyl)-benzyl]piperidin-hydrochlorid], the MIC was 1 µg/mL in [1] (ATCC9129, read-out: MHK); 128 µg/mL in experiment [2] (ATCC9080, read-out: MHK); 32 µg/mL in the experiment with Asp. niger ATCC 16404 (ATCC16404, read-out: MHK); 64 µg/mL in experiment [3] (ATCC10231, read-out: MHK); 16 µg/mL in the experiment with Rhod. rubra 49; 64 µg/mL in the experiment with Pen.notatum CBS 19746 (CBS19746, read-out: MHK). Moreover, the inhibition at 0.001 µM in [4] was 45%. Also, the inhibition at 0.01 µM in experiment [4] amounted to 80%. Moreover, the “2,3-Epoxysqualen-Konzentration” value is 1.0 µg/g in experiment [5] (c = 0.1 mg/kg, t = 3 h); 0.8 µg/g in [5] (c = 0.1 mg/kg, t = 8 h); 56.3 µg/g in experiment [5] (c = 1.0 mg/kg, t = 3 h); 20.7 µg/g in [5] (c = 1.0 mg/kg, t = 8 h). Also, the results for the Gesamtcholesterol in [6] (Dosis 6.5 mg/kg/Tag), in experiment [6] (Dosis 19.9 mg/kg/Tag) and in [6] (Dosis 62.3 mg/kg/Tag) were -8.3%, -11.0% and -32.1%, respectively. Further, the HDL-Cholesterol in experiment [6] (Dosis 6.5 mg/kg/Tag) is -3.4%; in [6] (Dosis 19.9 mg/kg/Tag), -8.2%; in [6] (Dosis 62.3 mg/kg/Tag) it was -28.5%. For the same compound, the β-Lipoprotein-Cholesterol in experiment [6] (Dosis 6.5 mg/kg/Tag) was -13.0%; in experiment [6] (Dosis 19.9 mg/kg/Tag), -13.2%; in experiment [6] (Dosis 62.3 mg/kg/Tag), -33.7%.

On to `CN(C)Cc1ccc(CC2CCN(C(=O)OCc3ccccc3)CC2)cc1.Cl` [Verbindung I, N-Benzyloxycarbonyl-4-[4-(dimethylaminomethyl)benzyl]-piperidin-hydrochlorid], for which the MIC was found to be 4 µg/mL in experiment [1] (ATCC9129, Trich., Sabouraud-Bouillon, 2 bis 4 Tage bei 26°C, read-out: MHK); 512 µg/mL in experiment [2] (ATCC9080, Sacc., Sabouraud-Bouillon, 2 bis 4 Tage bei 26°C, read-out: MHK); 64 µg/mL with Asp. niger ATCC 16404 (ATCC16404, Asp., Sabouraud-Bouillon, 2 bis 4 Tage bei 26°C, read-out: MHK); 256 µg/mL in [3] (ATCC10231, Cand., Sabouraud-Bouillon, 2 bis 4 Tage bei 26°C, read-out: MHK); 64 µg/mL in the experiment on Rhod. rubra 49 (Rhod., Sabouraud-Bouillon, 2 bis 4 Tage bei 26°C); 128 µg/mL in the experiment on Pen.notatum CBS 19746 (CBS19746, Pen., Sabouraud-Bouillon, 2 bis 4 Tage bei 26°C, read-out: MHK). In experiment [4] (Testkonzentration 10^-8 Mol/l), the inhibition at 0.01 µM was 85%. For the same compound, the inhibition at 0.001 µM in experiment [4] (Testkonzentration 10^-9 Mol/l) was 47%. The “2,3-Epoxysqualen-Konzentration” value in experiment [5] (c = 0.1 mg/kg, t = 3 h) is 1.0 µg/g; in experiment [5] (c = 1.0 mg/kg, t = 3 h) it was 26.1 µg/g; in experiment [5] (c = 1.0 mg/kg, t = 8 h), 10.0 µg/g. Also, in [6] (Dosis 47.1 mg/kg/Tag), the Gesamtcholesterol is on record as -23.1%. The HDL-Cholesterol in experiment [6] (Dosis 47.1 mg/kg/Tag) is -17.6%. For the same compound, the β-Lipoprotein-Cholesterol in experiment [6] (Dosis 47.1 mg/kg/Tag) was -32.9%.
